Tests used:
[1] = test system: L02; experiment: Cytotoxicity against human L02 cells assessed as reduction in cell proliferation measured after 72 hrs by MTT assay; type: cell-based; settings: L02, 72 h
[2] = Antiproliferative activity against human HCCLM3 cells assessed as reduction in cell proliferation measured after 72 hrs by MTT assay; type: functional, cell-based; settings: HCCLM3, 72 h
[3] = test system: HepG2; experiment: Antiproliferative activity against human HepG2 cells assessed as reduction in cell proliferation measured after 72 hrs by MTT assay; type: functional, cell-based; settings: HepG2, 72 h
[4] = test system: HepG2; experiment: Reduction in SIRT2 expression in human HepG2 cells measured after 72 hrs by Western blot analysis; type: functional, cell-based; settings: dose microM 5-30, time 72.0 hrs
[5] = test system: HepG2; experiment: Reduction in SIRT2 expression in human HepG2 cells at 15 uM by Western blot analysis; type: functional, cell-based; settings: time hrs 24-72, TDE = time-dependent effect
[6] = test system: HepG2; experiment: Cell cycle arrest in human HepG2 cells assessed as accumulation at subG1 phase at 5 uM measured after 72 hrs by FACS based flow cytometry analysis (reference value: 4 %); type: functional
[7] = test system: HepG2; experiment: Cell cycle arrest in human HepG2 cells assessed as accumulation at subG1 phase at 15 uM measured after 72 hrs by FACS based flow cytometry analysis (reference value: 4 %); type: functional
[8] = test system: HepG2; experiment: Cell cycle arrest in human HepG2 cells assessed as accumulation at subG1 phase at 30 uM measured after 72 hrs by FACS based flow cytometry analysis (reference value: 4 %); type: functional
[9] = test system: HepG2; experiment: Cell cycle arrest in human HepG2 cells assessed as accumulation at subG1 phase at 15 uM measured after 24 hrs by FACS based flow cytometry analysis (reference value: 3 %); type: functional
[10] = test system: HepG2; experiment: Cell cycle arrest in human HepG2 cells assessed as accumulation at subG1 phase at 15 uM measured after 48 hrs by FACS based flow cytometry analysis (reference value: 3 %); type: functional
[11] = test system: HepG2; experiment: Cell cycle arrest in human HepG2 cells assessed as accumulation at subG1 phase at 15 uM measured after 72 hrs by FACS based flow cytometry analysis (reference value: 3 %); type: functional

IC50 [3] | SMILES | IC50 [1] | IC50 [2] | also measured
40 µM | Cn1nc(-c2nnc(-c3ccc(Br)cc3)o2)c2ccccc21 | > 100 µM | > 100 µM | 
38.7 µM | Cc1ccc(-c2nnc(-c3nn(C)c4ccccc34)o2)cc1 | > 100 µM | > 100 µM | 
45 µM | Cn1nc(-c2nnc(-c3ccccc3Cl)o2)c2ccccc21 | > 100 µM | > 100 µM | 
37.5 µM | Cn1nc(-c2nnc(-c3ccccc3)o2)c2ccccc21 | 84.6 µM | 100 µM | 
67.4 µM | Cc1ccc(C(=O)Nc2ccc(S(=O)(=O)O)c3cc(S(=O)(=O)O)cc(S(=O)(=O)O)c23)cc1NC(=O)c1cccc(NC(=O)Nc2cccc(C(=O)Nc3cc(C(=O)Nc4ccc(S(=O)(=O)O)c5cc(S(=O)(=O)O)cc(S(=O)(=O)O)c45)ccc3C)c2)c1 [SURAMIN] |  |  | 
21.4 µM | Cn1nc(-c2nnc(-c3cccc(Cl)c3)o2)c2ccccc21 | > 100 µM | > 100 µM | 
19.5 µM | COc1ccc(-c2nnc(-c3nn(C)c4ccccc34)o2)cc1 | > 100 µM | > 100 µM | inhibition [4]: Dose-dependent effect; inhibition [5]: Tde; Activity [6]: 10%; Activity [7]: 41%; Activity [8]: 55%; Activity [9]: 10%; Activity [10]: 45%; Activity [11]: 55%
86.4 µM | Cn1nc(-c2nnc(-c3ccc(O)cc3)o2)c2ccccc21 | > 100 µM | > 100 µM | 
42 µM | Cn1nc(-c2nnc(-c3ccc(Cl)cc3)o2)c2ccccc21 | > 100 µM | > 100 µM | 
3.9 µM | CC(=O)O[C@H]1C(=O)[C@@]2(C)[C@H]([C@H](OC(=O)c3ccccc3)[C@]3(O)C[C@H](OC(=O)[C@H](O)[C@@H](NC(=O)c4ccccc4)c4ccccc4)C(C)=C1C3(C)C)[C@]1(OC(C)=O)CO[C@@H]1C[C@@H]2O [PACLITAXEL] |  |  | 
24.5 µM | Cn1nc(-c2nnc(-c3cccc(Br)c3)o2)c2ccccc21 | > 100 µM | > 100 µM | 
22.3 µM | Cn1nc(-c2nnc(-c3ccccc3Br)o2)c2ccccc21 | 89 µM | > 100 µM | 
60 µM | Cc1cccc(-c2nnc(-c3nn(C)c4ccccc34)o2)c1 | > 100 µM | > 100 µM | 

From ChEMBL document CHEMBL4725269, “Exploring the newer oxadiazoles as real inhibitors of human SIRT2 in hepatocellular cancer cells” (Bioorg Med Chem Lett, 2020)
